From patent US8637507B2, “Bicyclic compounds as inhibitors of diacylglycerol acyltransferase” (Merck Sharp & Dohme Corp., priority 2009, dated 2014)
pIC50: −log10 of the molar value.

Biological target: human DGAT1 enzyme (Homo sapiens (Human), UniProt O75907)
Conditions: read-out: hDGAT1 IC50; human DGAT1 expressed in Sf9 insect cells, microsomes; 2 hours at room temperature
Description: The in vitro assay to identify DGAT1 inhibitors uses human DGAT1 enzyme expressed in Sf9 insect cells prepared as microsomes. The reaction was initiated by the addition of the combined substrates 1,2-dioleoyl-sn-glycerol and [^14C]-palmitoyl-CoA and incubated with test compounds and microsomal membranes for 2 hours at room temperature. The assay was stopped by adding 0.5 mg wheat germ agglutinin beads in assay buffer with 1% Brij-35 and 1% 3-cholamidopropyldimethyl-ammonio-1-propane sulfonate. Plates were sealed with TopSeal and incubated for 18 hours to allow the radioactive triglyceride product to come into proximity with the bead. Plates were read on a TopCount instrument.
Percent inhibition was calculated as the percent of (test compound inhibition minus non-specific binding) relative to (total binding minus non-specific binding). IC50 values were determined by curve fitting the data to a Sigmoidal dose-response in GraphPad Prism utilizing the following equation: Y=A+(B−A)/(1+10^((Log IC50−X))), where A and B are the bottom and top of the curve (highest and lowest inhibition), respectively, and X is the logarithm of concentration.

human DGAT1 enzyme, sequence (O75907 whole entry): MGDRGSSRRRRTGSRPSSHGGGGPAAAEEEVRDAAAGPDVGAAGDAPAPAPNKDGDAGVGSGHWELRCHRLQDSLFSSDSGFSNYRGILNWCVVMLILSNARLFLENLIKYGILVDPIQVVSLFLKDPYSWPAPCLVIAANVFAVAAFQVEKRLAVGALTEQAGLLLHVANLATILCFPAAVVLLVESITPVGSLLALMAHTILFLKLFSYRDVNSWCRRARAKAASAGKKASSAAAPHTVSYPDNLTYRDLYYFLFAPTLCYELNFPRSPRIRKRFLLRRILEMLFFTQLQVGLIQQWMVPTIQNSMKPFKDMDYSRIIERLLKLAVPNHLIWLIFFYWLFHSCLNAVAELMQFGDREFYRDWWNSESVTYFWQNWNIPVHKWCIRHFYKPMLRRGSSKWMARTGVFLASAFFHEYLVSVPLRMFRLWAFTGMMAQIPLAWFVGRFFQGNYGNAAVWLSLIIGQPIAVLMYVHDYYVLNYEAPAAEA

Structure (SMILES): Cc1cc(C(=O)Nc2ccccc2)c2ccc(-c3ccc(OCC(C)(C)C(=O)O)nc3)cc2n1 [Example B-17, 2,2-dimethyl-3-(5-(2-methyl-4-(phenylcarbamoyl)quinolin-7-yl)pyridin-2-yloxy)propanoic acid]
- pIC50: 6.56
